Laboratory results as given in patent US11198704B2, “Butane-tetraol-based amphiphiles and uses thereof” (Industry-University Cooperation Foundation Hanyang …, priority 2016, dated 2021).

Molecular target: T1, melibiose permease (MelB) (Salmonella typhimurium, UniProt P30878)
T1 construct: made in house; host or cells: E. coli DW2
Assay: MelB extraction and thermostability, SDS-PAGE and Western Blotting of the dissolved protein
Details: 90 minutes, detergent 1.5% by weight
Protocol: The MelB protein was extracted from a membrane using BTM-C11s or DDM, and the amount and structure of the extracted protein were analyzed through SDS-PAGE and Western Blotting. A concentration of the amphiphilic compound used was 1.5% by weight, and the protein was extracted at four temperatures (0, 45, 55, and 65° C.), and incubated at the same temperature for 90 minutes. Thereafter, an amount of the protein remaining dissolved in an aqueous solution was measured to evaluate two types of performance: protein extraction efficiency and stabilization ability of the compound. The amount of the protein extracted and stabilized with each of the amphiphilic molecules is expressed as a relative value (%) of the entire amount of proteins contained in a membrane sample which is not treated with the amphiphilic molecules.
Specifically, Salmonella typhimurium melibiose permease (MelBSt) having a 10-His tag at the C-terminus thereof was expressed in E. coli DW2 cells (AmelB and AlacZY) using a plasmid pK95ΔAHB/WT MelBSt/CH10. Cell growth and membrane preparation were performed according to the method disclosed in the article by A. S. Ethayathulla et al. (Nat. Commun. 2014, 5, 3009). A protein assay was performed using a Micro BCA kit (Thermo Scientific, Rockford, Ill.). An effect of the isomers (A-BTM-C11, B-BTM-C11, and M-BTM-C11) of the BTM-C11s or DDM on the MelBSt stability was evaluated using the protocol disclosed in P. S. Chae et al. (Nat. Methods 2010, 7, 1003-1008). A membrane sample (having a final protein concentration of 10 mg/mL) containing MelBSt was incubated at four temperatures (0, 45, 55, and 65° C.) for 90 minutes in a solubilizing buffer (20 mM sodium phosphate, pH 7.5, 200 mM NaCl, 10% glycerol, and 20 mM melibiose) containing 1.5% (w/v) DDM or the BTM-C11 isomers. To remove insoluble matter, the sample was ultracentrifuged at 355,590 g at 4° C. for 45 minutes using a Beckman Optima™ MAX ultracentrifuge equipped with a TLA-100 rotor. The dissolved fraction was separated by 16% SDS-PAGE, and then immunoblotted with a Penta-His-HRP antibody (Qiagen, Germantown, Md.). The membrane fraction containing 20 μg of untreated proteins was used to represent the entire MelB, and the treated samples were loaded in each well at the same volume. MelBSt was measured by an ImageQuant LAS 4000 Biomolecular imager (GE Health Care Life Sciences) using a SuperSignal West Pico chemiluminescent substrate.

T1 sequence (P30878 whole entry): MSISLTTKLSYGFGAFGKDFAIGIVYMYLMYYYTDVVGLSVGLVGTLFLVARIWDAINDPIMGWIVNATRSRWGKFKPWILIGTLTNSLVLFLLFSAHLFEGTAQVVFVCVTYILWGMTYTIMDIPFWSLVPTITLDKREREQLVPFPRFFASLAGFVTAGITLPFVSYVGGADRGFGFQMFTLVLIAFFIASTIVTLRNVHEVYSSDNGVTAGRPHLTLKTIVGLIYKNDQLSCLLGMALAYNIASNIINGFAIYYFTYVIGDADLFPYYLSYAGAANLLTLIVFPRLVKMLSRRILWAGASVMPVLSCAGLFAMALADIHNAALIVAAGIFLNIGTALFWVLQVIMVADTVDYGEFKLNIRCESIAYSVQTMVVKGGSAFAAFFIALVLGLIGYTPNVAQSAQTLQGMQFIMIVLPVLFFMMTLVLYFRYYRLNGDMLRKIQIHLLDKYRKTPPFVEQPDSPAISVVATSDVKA

## CCCCCCCCCCCCO[C@@H]1O[C@H](CO)[C@@H](O[C@H]2O[C@H](CO)[C@@H](O)[C@H](O)[C@H]2O)[C@H](O)[C@H]1O [DDM, n-dodecyl-β-D-maltopyranoside, reference compound]
0° C.
  MelB protein extraction efficiency / dissolved MelB: high MelB protein extraction efficiency
55° C.
  amount of MelB protein remaining dissolved in aqueous solution: approximately 15%
65° C.
  amount of dissolved MelB: very small amount of the protein remained
